{
  "source": "paper PMC2809102",
  "about": "“Two New Pimelic Diphenylamide HDAC Inhibitors Induce Sustained Frataxin Upregulation in Cells from Friedreich's Ataxia Patients and in a Mouse Model” (PLoS ONE, 2010)",
  "key": {"[1]": {"tested_on": "FXN gene expression", "parameters": "method as in PMID 16921367, PMID 18463734", "conditions": "FRDA patient cells; cited from earlier work"}, "[2]": {"tested_on": "frataxin mRNA in PBMC from FRDA patients", "test": "FXN mRNA by quantitative real-time RT-PCR in unstimulated PBMC from FRDA patients", "type": "cell-based, human", "conditions": "10 µM"}, "[3]": {"tested_on": "frataxin mRNA in KIKI splenocytes", "test": "Fxn mRNA by qRT-PCR in unstimulated KIKI mouse splenocytes", "type": "cell-based", "conditions": "10 µM, 48 hours"}, "[4]": {"tested_on": "frataxin in brain and heart of wild-type mice", "parameters": "method as in PMID 16921367", "conditions": "cited from earlier work"}, "[5]": {"test": "Levels of compound in mouse brain and plasma after single injection", "type": "in vivo", "conditions": "single 150 mg/Kg injection"}, "[6]": {"tested_on": "FXN mRNA in healthy volunteers PBMCs", "test": "FXN mRNA by qRT-PCR in PBMCs from healthy volunteers", "type": "cell-based, human", "conditions": "10 µM, 48 h"}, "[7]": {"tested_on": "frataxin mRNA in brain and heart of KIKI mice", "test": "Fxn mRNA by qRT-PCR in brain and heart of KIKI mice after single subcutaneous injection", "type": "in vivo, mouse"}, "[8]": {"tested_on": "histone acetylation H3K14 and H4K5 at fxn gene", "test": "ChIP of H3K14 and H4K5 acetylation upstream of GAA repeat in KIKI mouse brain", "type": "in vivo", "conditions": "KIKI mice, 50 or 150 mg/kg s.c."}},
  "data": [
    {"smiles": "Nc1ccccc1NC(=O)CCCCCCC(=O)Nc1ccccc1", "note": "[BML-210]", "values": [
      {"measurement": "effect on FXN gene expression", "setting": "[1]", "result": "relieve repression of the FXN gene"}
    ]},
    {"smiles": "O=C(CCCCCCC(=O)Nc1ccccc1)NO", "note": "[SAHA, suberoylanilide hydroxamic acid]", "values": [
      {"measurement": "effect on FXN gene expression", "setting": "[1]", "result": "inactive"}
    ]},
    {"smiles": "CC(/C=C/C(=O)NO)=C\\[C@@H](C)C(=O)c1ccc(N(C)C)cc1", "note": "[TSA, trichostatin A]", "values": [
      {"measurement": "effect on FXN gene expression", "setting": "[1]", "result": "inactive"}
    ]},
    {"smiles": "Cc1ccc(NC(=O)CCCCCC(=O)Nc2ccccc2N)cc1", "note": "[compound 106, N ^1-(2-aminophenyl)-N ^7-p-tolylheptanediamide, reference compound]", "values": [
      {"measurement": "increase of frataxin mRNA levels, average", "setting": "[2]; 48-hour incubation, average of patients, DMSO = 1", "result": 3.6, "unit": "fold"},
      {"measurement": "frataxin mRNA upregulation in mouse splenocytes", "setting": "[3]", "result": "significant"},
      {"measurement": "frataxin upregulation in brain and heart of wild-type mice", "setting": "[4]", "result": "no frataxin upregulation"}
    ]},
    {"smiles": "Cc1ccc(C(=O)NCCCCCC(=O)Nc2ccccc2N)cc1", "note": "[compound 109]", "values": [
      {"measurement": "time to total elimination from brain and plasma", "setting": "[5]", "result": "< 4", "unit": "h"}
    ]},
    {"smiles": "Cc1ccc(C(=O)NCCCCCC(=O)Nc2ccc(F)cc2N)cc1", "note": "[compound 136]", "values": [
      {"measurement": "effect on frataxin mRNA", "setting": "[2]; 48 h, compared to 10 µM compound 106", "result": "limited effect"},
      {"measurement": "FXN mRNA in healthy volunteers PBMCs", "setting": "[6]", "result": "not overall significantly affected"},
      {"measurement": "FXN mRNA trend in healthy volunteers PBMCs", "setting": "[6]; non-significant", "result": "trend toward downregulation"},
      {"measurement": "frataxin mRNA in brain", "setting": "[7]; single s.c. 150 mg/kg, 24 hours after injection", "result": "increase in frataxin mRNA in the brain to wild-type levels"},
      {"measurement": "Fxn mRNA in heart", "setting": "[7]; single s.c. dose, only at 50 or 150 mg/kg (not 5, 15), p = 0.009 and 0.008", "result": "significantly increased"},
      {"measurement": "Fxn mRNA in brain", "setting": "[7]; single s.c. dose, only at 50 or 150 mg/kg (not 5, 15), p<0.001", "result": "significantly increased"},
      {"measurement": "histone acetylation H3K14 and H4K5 upstream of GAA repeat, brain", "setting": "[8]", "result": "increase in histone acetylation"},
      {"measurement": "frataxin mRNA upregulation in mouse splenocytes", "setting": "[3]", "result": "significant"}
    ]}
  ]
}
